Assay results from patent US5985603A, “P2x receptor DNA and protein sequence” (Glaxo Group Limited, priority 1994, dated 1999).

Key:
PC12 P2X receptor = target: T1, PC12 P2X receptor (Rattus norvegicus, UniProt P49653); assay: functional properties of cloned P2X receptors (electrical recordings): PC12; format: cell-based
T1 construct: host or cells: HEK293 cells (oocytes are also named for the functional characterisation of clone 3)
T1 sequence (P49653 1-472): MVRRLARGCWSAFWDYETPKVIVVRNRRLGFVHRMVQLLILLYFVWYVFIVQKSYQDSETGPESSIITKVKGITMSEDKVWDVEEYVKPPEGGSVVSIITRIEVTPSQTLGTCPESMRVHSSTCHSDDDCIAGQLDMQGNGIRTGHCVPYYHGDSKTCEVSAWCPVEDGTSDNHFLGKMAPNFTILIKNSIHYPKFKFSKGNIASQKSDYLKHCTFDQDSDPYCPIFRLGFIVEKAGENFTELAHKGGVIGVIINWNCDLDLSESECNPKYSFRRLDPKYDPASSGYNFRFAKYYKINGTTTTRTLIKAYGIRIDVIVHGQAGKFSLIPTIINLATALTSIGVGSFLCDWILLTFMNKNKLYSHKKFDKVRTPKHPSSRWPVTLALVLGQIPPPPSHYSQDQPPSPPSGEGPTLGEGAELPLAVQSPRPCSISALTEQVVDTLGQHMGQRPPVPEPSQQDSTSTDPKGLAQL

hP2X = target: T2, hP2X (Homo sapiens, UniProt P51575); assay: inward currents evoked by purinoceptor agonists in Xenopus oocytes expressing hP2X; format: cell-based
T2 construct: expressed in transfected cells; host or cells: Xenopus oocytes injected with in vitro transcribed RNA
T2 sequence (P51575 1-399): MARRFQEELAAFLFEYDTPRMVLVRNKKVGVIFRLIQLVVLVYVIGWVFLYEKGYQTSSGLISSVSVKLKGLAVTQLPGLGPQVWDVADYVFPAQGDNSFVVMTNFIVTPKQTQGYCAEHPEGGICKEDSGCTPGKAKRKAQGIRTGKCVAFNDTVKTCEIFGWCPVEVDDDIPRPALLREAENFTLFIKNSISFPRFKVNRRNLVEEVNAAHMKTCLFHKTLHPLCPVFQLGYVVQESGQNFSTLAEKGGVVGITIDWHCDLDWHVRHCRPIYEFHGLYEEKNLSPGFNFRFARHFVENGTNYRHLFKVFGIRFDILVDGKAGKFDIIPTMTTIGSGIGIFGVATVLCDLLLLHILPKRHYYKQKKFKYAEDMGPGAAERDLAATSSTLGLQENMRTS
Protocol: Human urinary bladder P2X cDNA, subcloned into the pBKCMV expression vector, was linearized with Notl, and transcribed in vitro with T3 polymerase in the presence of cap analogue m7G(5')ppp(5')G. Defolliculated Xenopus oocytes (Bertrand et al, Electrophysiology of neuronal nicotinic acetylcholine receptors expressed in Xenopus oocytes following nuclear injection of genes or cDNAs Meth Neurosci 4: 174-193 (1991)) were injected with 50 ng of human P2X in vitro transcribed RNA, and incubated at 18° C. for 2-6 days in the ND96 solution (mM): NaCl96, KCl2, MgCl2 1, CaCl2 2, sodium pyruvate 5, HEPES 5, ph 7.6-7.5, penicillin (10 U/ml), and streptomycin (10 μg/ml).
Oocytes were placed in a 1 ml chamber and superfused at 2-3 ml/min with ND96 solution with 0.1 mM BaCl2 replacing the 2 mM CaCl2 to prevent activation of endogenous calcium-activated chloride currents (Barish, A transient calcium-dependent chloride current in the immature Xenopus oocytes J Physiol 342: 309-325 (1983)). Currents were measured using a two-electrode voltage-clamp amplifier (Geneclamp Axon Instruments)at a holding potential of -60 mV. Microelectrodes were filled with 3 M KCl (0.5-2 M.OMEGA.). Data were collected using PClamp software (Axon Instruments). […] Antagonists were applied both in the superfusate and together with ATP in the U-tube solution.
Concentration response curves for purinoceptor agonists were fitted with a Hill slope of 1. […] Data are presented throughout as mean ± SEM for a given number of oocytes.

[1] = ATP higher concentrations (1 μM)

Structure (SMILES): Nc1ncnc2c1ncn2[C@@H]1O[C@H](COP(=O)([O-])OP(=O)([O-])OP(=O)([O-])[O-])[C@@H](O)[C@H]1O.[Mg+2].[Mg+2] [ATP, adenosine 5'-triphosphate magnesium salt]
- EC50 (PC12 P2X receptor): 8 µM
- response to repeated application (hP2X; 100 μM ATP for 5 s every 10 min): reproducible inward currents
- reversal of current on washout (hP2X; ATP): returned to control values on washout
- time over which responses developed (hP2X; ATP 30-300 nM): 3 to 5 s
- response after 5 s of continued application, of the peak amplitude (hP2X; [1]): 40-60
- time to peak of response (hP2X; [1]): 1 to 1.5 s
- variation in peak amplitude on repeated application (hP2X; ATP up to 1 mM for 5 s every 10 mins): < 10%
- comparison of concentration-effect curves (hP2X; ATP, 2MeSATP and 2-chloro-ATP): superimposable
- agonist profile (rank order) (hP2X; oocytes expressing hP2X): 2MeSATP≥ATP>α,β,-meATP
- activation at 10 µM (hP2X; read-out: response to 10 μM ATP, % of peak response to ATP): ~90%
